# Values quoted from earlier work as cited in patent US20080292726A1, “[…] COMPOSITIONS AND METHODS OF THEIR USE” (priority 2007, published 2008).
# System: mouse model of uveitis
# Settings: systemically administered, subcutaneously injected into the neck
smiles,measurement,value
O=[N+]([O-])[O-].O=[N+]([O-])[O-].O=[N+]([O-])[O-].[Ga+3] [gallium nitrate],efficacy in a mouse model of uveitis,effective
